Experimental data as given in ChEMBL document CHEMBL4033712, “Synthesis and biological evaluation of new C-12(α/β)-(N-) sulfamoyl-phenylamino-14-deoxy-andrographolide derivatives as potent anti-cancer agents” (Bioorg Med Chem Lett, 2017).

Columns and labels:
[1] = (§1) Growth inhibition of human NHDF after 72 hrs by CellTiter-Glo luminescent cell viability assay; type: cell-based; settings: NHDF cells
NHDF = test: as §1; type: cell-based; settings: nhdf, 72 h
[2] = Growth inhibition of human NCI60 cells after 48 hrs by sulforhodamine B assay; type: functional; settings: NCI60, 48 h

Row | Compound | GI50 at 72 h [1] [µM] | LC50 (NHDF) [µM] | GI50 [2] [µM] | TGI [2] [µM] | CC50 ([2]; read-out: LC50 (the source's name)) [µM]
1 | CN(C)C/C=C/C(=O)Nc1ccc(C(=O)Nc2ccc(Nc3ncc(Cl)c(-c4c[nH]c5ccccc45)n3)cc2)cc1 | 0.0466 | 0.250743 | – | – | –
2 | C=C1CC[C@@H]2[C@](C)(CO)[C@H](O)CC[C@@]2(C)[C@@H]1C/C=C1/C(=O)OC[C@H]1O [ANDROGRAPHOLIDE] | – | – | 16.2 | 49.7 | 80.9
